# Assay results reported in US20180092360A1, “MICROBICIDAL COMPOSITION” (Dow Global Technologies LLC, priority 2015, published 2018).
# Read-outs that look alike come from different tables or passages of the source.
# Tested on: bacterial pool of seven organisms
# Assay: Dow time-kill test in pH 7.4 hand dish-washing liquid, with Kull synergy index
# Format: cell-based
# Details: for Concentration required to achieve >=4 Log bacterial counts reduction: bacterial pool, pH 7.4 hand dish-washing liquid, 37° C., active ingredient basis
# Description: Four biocides and their combinations were tested at different concentration ranges. […] All biocide solutions were prepared and diluted in sterile DI water and used within 2 hours. These biocides are commercially available from The Dow Chemical Company. [table] A bacteria pool was used for testing. 24 hr bacterial cultures were obtained in TSB (Tryptic Soy Broth) media at 37° C. incubation for the seven organisms. The bacterial pool of seven organisms was prepared by taking equal parts of a 24 hour stationary phase aliquot from each bacterial culture and mixing them together. […] The time-kill tests were carried out to determine the threshold concentration of the biocide products in pH 7.4 hand dish-washing liquid. […] Biocides were then added into this bacterial suspension at various levels and mixed immediately. The mixed samples were then incubated at 37° C. At 24 hrs, viable bacteria remaining in the hand dish-washing samples were determined by 1:10 serial dilutions, transferring 20 ul aliquot of each sample into 180 ul TSB/Resazurin media. Triplicate tests were conducted. MPN method was used to determine the microbial concentration at after 24 hours incubation at 37° C. […] One measure of synergism is the industrially accepted method described by Kull, […]. and Mayer, R. L., in Applied Microbiology 9:538-541 (1961), using the ratio determined by the formula: Qa/QA+Qb/QB=Synergy Index (“SI”) wherein: • QA=concentration of compound A (first component) in ppm, acting alone, which produced an end point (MIC of Compound A). • Qa=concentration of compound A in ppm, in the mixture, which produced an end point. • QB=concentration of compound B (second component) in ppm, acting alone, which produced an end point (MIC of Compound B). • Qb=concentration of compound B in ppm, in the mixture, which produced an end point. When the sum of Qa/QA and Qb/QB is greater than one, antagonism is indicated. […] The lower the SI, the greater the synergy shown by that particular mixture. The minimum inhibitory concentration (MIC) of a microbicide is the lowest concentration tested under a specific set of conditions that prevents the growth of added microorganisms.
SMILES,Concentration required to achieve >=4 Log bacterial counts reduction (24 h) [ppm],"MIC (Bacterial Pool, 24 hours, BIT alone (QA) or BIT in mixture with SOPP (Qa), read-out: Minimum Inhibitory Concentration (ppm) BIT) [µg/mL]","MIC (24 h, read-out: Minimum Inhibitory Concentration (ppm) MIT) [µg/mL]","Minimum Inhibitory Concentration (ppm) SOPP (Bacterial Pool, 24 hours, SOPP alone (QB) or SOPP in mixture with BIT (Qb)) [ppm]","Minimum Inhibitory Concentration (ppm) SOPP (Bacterial Pool, 24 hours, SOPP alone (QB) or SOPP in mixture with CMIT/MIT (Qb)) [ppm]","Minimum Inhibitory Concentration (ppm) SOPP (Bacterial Pool, 24 hours, SOPP alone (QB) or SOPP in mixture with MIT (Qb)) [ppm]"
"O=c1[nH]sc2ccccc12 [BIT, 1,2-benzisothiazol-3-one]",400,400,–,–,–,–
"Cn1sccc1=O [MIT, 2-Methylisothiazol-3-one]",>95,–,> 95,–,–,–
"[Na+].[O-]c1ccccc1-c1ccccc1 [SOPP, sodium orthophenylphenate]",358.5,–,–,358.5,358.5,358.5
